Data reported in patent publication US5648378A, “2-iminochromene derivatives as inhibitors of protein tyrosine kinase” (Research Corporation Technologies, Inc., priority 1995, dated 1997).
Converted amounts (≈) assume the structure as drawn. “Also recorded” adds a separate entry of the source.

Key:
[1] = test system: MG-63; assay: cell growth inhibition, MG-63 osteosarcoma; format: cell-based; conditions: Homo sapiens, MG-63, 72 h; 3 days, Trypan Blue viable cell count
Experimental: (§1) The source of the cancer cell lines were: HL-60, HT-29, and BT-20, from American Type Culture Collection, Rockville, Maryland; A-1 from Dr. M. H. Freedman, MG-63, from Dr. M. Hurley, and human fibroblast from Dr. R. Zeff. Cells were grown in the culture treated with or without various compounds for 3 days. Cells (except BT-20) were then recovered and treated with Trypan Blue and the number of viable cells counted. For BT-20 cells, a new rapid and simple method using Alamar Blue Assay was used, as described by S. A. Ahmed et al., J. Immunol. Meth., 170, 211 (1994). The symbol i on the Table indicates "not
(§2) As shown on Table 3, several compounds of formula (I) were tested for their ability to inhibit the growth of human cancer cells including promyelocytic leukemia HL-60 cells (S. J. Collins et al., Blood, 70, 1233 (1987)); acute lymphocytic leukemia A-1 cells, (S. Kamel-Reid et al., Leukemia, 6, 8 (1992)); human osteosarcoma MG-63, (A. Pirskanen et al., J. Bone and Mineral Res., 1635 (1994)); human breast carcinoma BT-20 (G. G. Castles et al., Cancer Res., 58, 5934 (1992)); and human colon adenocarcinoma HT-29 cells (R. Garcia et al., Oncogene, 6, 1983 (1991)).

[2] = biological target: T1, p56^lck (Homo sapiens, UniProt P06239); assay: kinase assay, p56lck; format: biochemical; conditions: poly [Glu,Tyr](4:1) substrate
T1 construct: purchased Upstate Biotechnology Inc
Experimental: (§3) Purified p60^c-scr and Src-family kinases p56^lck, p56^lyn, and p55^fyn were obtained from Upstate Biotechnology Inc. Kinase assays were performed as described by A. Gezit, J. Med.

[3] = biological target: p55^fyn; assay: kinase assay, p55fyn; format: biochemical; conditions: poly [Glu,Tyr](4:1) substrate
Experimental: as §3

[4] = biological target: T2, p60^c-src (Homo sapiens, UniProt P12931); assay: kinase assay, purified p60c-src, poly [Glu,Tyr](4:1) substrate; format: biochemical; conditions: for potency relative to the hydroxylated parent compound (in words): hydroxymethyl versus hydroxy N-phenyl analogue; for IC50, p60^c-src: purified kinase, poly [Glu,Tyr](4:1) substrate
T2 construct: purchased Upstate Biotechnology Inc
Experimental: as §3

[5] = test system: A-1 cells; assay: cell growth inhibition, A-1 acute lymphocytic leukemia; format: cell-based; conditions: Homo sapiens, 72 h; 3 days, Trypan Blue viable cell count
Experimental: as §1

[6] = biological target: T3, p56^lyn (Homo sapiens, UniProt P07948); assay: kinase assay, p56lyn; format: biochemical; conditions: poly [Glu,Tyr](4:1) substrate
T3 construct: purchased Upstate Biotechnology Inc
Experimental: as §3

[7] = test system: HL-60 cells; assay: cell growth inhibition, HL-60 promyelocytic leukemia; format: cell-based; conditions: Homo sapiens, HL-60, 72 h; 3 days, Trypan Blue viable cell count
Experimental: as §1, §2

[8] = test system: BT-20; assay: cell growth inhibition, BT-20 breast carcinoma (Alamar Blue); format: cell-based; conditions: Homo sapiens, BT-20, 72 h, 3 days, Alamar Blue Assay
Experimental: as §1, §2

[9] = test system: HT-29 cells; assay: cell growth inhibition, HT-29 colon adenocarcinoma; format: cell-based; conditions: Homo sapiens, HT-29, 72 h; 3 days, Trypan Blue viable cell count
Experimental: as §1, §2

[10] = test system: Human fibroblasts cells; assay: cell growth inhibition, human fibroblasts; format: cell-based; conditions: for IC50: Homo sapiens, Fibroblast, 72 h, 3 days, Trypan Blue viable cell count
Experimental: as §1

[11] = test system: human cancer cells (HL-60, A-1, MG-63, BT-20, HT-29); assay: inhibition of growth of human cancer cell lines, overall comparison; format: cell-based; conditions: 9TA, 18TA compared with e.g. 9TO, 18TO
Experimental: as §1, §2

[12] = test system: melanoma; conditions: 50 mg/day; Thornes et al. (1994); cited from earlier work

T1 sequence (P06239 whole entry, species assumed): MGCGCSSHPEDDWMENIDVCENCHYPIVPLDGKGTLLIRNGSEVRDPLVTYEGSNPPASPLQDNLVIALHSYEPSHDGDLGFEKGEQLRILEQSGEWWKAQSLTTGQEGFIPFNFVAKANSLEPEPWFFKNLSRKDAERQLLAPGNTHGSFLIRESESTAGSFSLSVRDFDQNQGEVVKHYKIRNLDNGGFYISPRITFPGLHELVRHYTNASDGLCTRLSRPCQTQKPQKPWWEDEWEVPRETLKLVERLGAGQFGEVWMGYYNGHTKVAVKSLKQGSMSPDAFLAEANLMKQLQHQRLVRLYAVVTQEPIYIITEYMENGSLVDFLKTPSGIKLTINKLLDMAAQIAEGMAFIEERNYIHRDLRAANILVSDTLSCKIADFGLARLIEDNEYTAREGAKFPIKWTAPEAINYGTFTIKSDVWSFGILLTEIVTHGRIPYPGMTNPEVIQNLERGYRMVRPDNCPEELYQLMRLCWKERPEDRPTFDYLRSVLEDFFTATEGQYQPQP
T2 sequence (P12931 whole entry): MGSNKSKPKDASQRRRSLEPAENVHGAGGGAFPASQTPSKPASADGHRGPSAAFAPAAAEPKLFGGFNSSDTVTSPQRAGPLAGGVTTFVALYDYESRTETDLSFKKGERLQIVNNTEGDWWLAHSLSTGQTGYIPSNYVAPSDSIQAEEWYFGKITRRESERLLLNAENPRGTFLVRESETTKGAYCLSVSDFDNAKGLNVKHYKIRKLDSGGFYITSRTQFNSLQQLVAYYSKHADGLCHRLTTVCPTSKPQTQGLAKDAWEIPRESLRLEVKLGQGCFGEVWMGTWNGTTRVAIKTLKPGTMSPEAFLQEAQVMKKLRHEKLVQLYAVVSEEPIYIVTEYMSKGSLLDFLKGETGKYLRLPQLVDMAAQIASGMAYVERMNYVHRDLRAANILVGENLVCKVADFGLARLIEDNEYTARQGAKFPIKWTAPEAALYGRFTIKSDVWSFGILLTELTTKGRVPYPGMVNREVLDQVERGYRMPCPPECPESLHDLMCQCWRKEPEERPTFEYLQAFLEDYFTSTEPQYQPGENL
T3 sequence (P07948 whole entry, species assumed): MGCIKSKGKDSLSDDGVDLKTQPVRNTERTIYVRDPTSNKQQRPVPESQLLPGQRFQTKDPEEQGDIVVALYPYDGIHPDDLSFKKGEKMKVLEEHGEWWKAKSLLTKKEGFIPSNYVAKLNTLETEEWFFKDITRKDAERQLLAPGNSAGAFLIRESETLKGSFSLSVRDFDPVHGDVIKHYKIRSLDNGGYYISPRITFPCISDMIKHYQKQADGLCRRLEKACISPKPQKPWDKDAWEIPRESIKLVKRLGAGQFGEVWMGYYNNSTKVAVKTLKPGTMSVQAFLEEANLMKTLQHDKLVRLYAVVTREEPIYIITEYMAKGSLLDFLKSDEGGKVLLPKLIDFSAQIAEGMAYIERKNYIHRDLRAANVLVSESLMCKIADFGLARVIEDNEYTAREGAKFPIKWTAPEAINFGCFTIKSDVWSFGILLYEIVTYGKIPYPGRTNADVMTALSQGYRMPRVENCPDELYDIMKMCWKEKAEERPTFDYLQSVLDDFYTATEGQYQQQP

| IC50, p55^fyn [3] | IC50, p60^c-src [4] | IC50 [5] | IC50 [7] | IC50 [8] | IC50 [9] | IC50, p56^lck [2] | Structure (SMILES) | further results |
| --- | --- | --- | --- | --- | --- | --- | --- | --- |
| 3 µg/mL (≈ 9.67 µM) | 2.5 µg/mL (≈ 8.06 µM) | 11 µg/mL (≈ 35.4 µM) |  |  |  |  | N=c1oc2c(O)cccc2cc1C(=O)Nc1cccc(CO)c1 [Compound 9TABA] | IC50 [1]: > 20 µg/mL; IC50 [2]: 64.5 µM; potency relative to the hydroxylated parent compound (in words) ([4]; p60^c-src): not more potent |
| > 20 µg/mL | 5 µg/mL (≈ 15.3 µM) | 2.5 µg/mL (≈ 7.66 µM) | 2.5 µg/mL (≈ 7.66 µM) |  |  |  | N=c1oc2c(O)c(O)ccc2cc1C(=O)Nc1cccc(CO)c1 [Compound 18TABA] | IC50, p56^lyn [6]: 20 µg/mL (≈ 61.3 µM); potency relative to the hydroxylated parent compound (in words) ([4]; p60^c-src): not more potent |
|  |  |  | 7.5 µg/mL (≈ 24.2 µM) | > 20 µg/mL |  |  | COc1ccc2cc(C(=O)Nc3ccc(O)cc3)c(=N)oc2c1 [Compound 15T] | fold less active than 8T ([4]; p60^c-src, versus 8T): 8 fold |
|  | 2.1 µg/mL (≈ 6.72 µM) | 2.5 µg/mL (≈ 8.01 µM) | 5 µg/mL (≈ 16 µM) | > 20 µg/mL | 0.625 µg/mL (≈ 2 µM) |  | N=c1oc2cc(O)cc(O)c2cc1C(=O)Nc1ccccc1O [Compound 19TO] | IC50 [1]: 2.5 µg/mL (≈ 8.01 µM); inhibition of growth of human fibroblast cells (in words) [10]: not effective; IC50 [10]: > 20 µg/mL |
|  | 10 µg/mL (≈ 35.7 µM) |  |  |  |  |  | N=c1oc2ccccc2cc1C(=O)Nc1cccc(O)c1 [Compound 25TA] |  |
| > 20 µg/mL | 3.6 µg/mL (≈ 11.5 µM) | 8 µg/mL (≈ 25.6 µM) | 3.5 µg/mL (≈ 11.2 µM) | 7.2 µg/mL (≈ 23.1 µM) | 20 µg/mL (≈ 64 µM) | 5 µg/mL (≈ 16 µM) | N=c1oc2c(O)c(O)ccc2cc1C(=O)Nc1ccc(O)cc1 [Compound 18T] |  |
| > 20 µg/mL |  | 17 µg/mL (≈ 57.4 µM) | > 20 µg/mL |  |  |  | N=c1oc2c(O)c(O)ccc2cc1C(=O)Nc1ccccc1 [Compound 18AN] | inhibition of cancer cell growth (in words) [11]: less active; inhibition of p60^c-src kinase (in words) [4]: inactive |
|  | 12.5 µg/mL (≈ 40.3 µM) |  | 5 µg/mL (≈ 16.1 µM) | > 20 µg/mL |  | 7.5 µg/mL (≈ 24.2 µM) | COc1ccc2oc(=N)c(C(=O)Nc3ccc(O)cc3)cc2c1 [Compound 16T] | fold less active than 7T ([4]; p60^c-src, versus 7T): 4 fold |
|  | 0.035 µg/mL (≈ 0.118 µM) | 6 µg/mL (≈ 20.3 µM) | 10 µg/mL (≈ 33.8 µM) |  | 20 µg/mL (≈ 67.5 µM) | 0.62 µg/mL (≈ 2.09 µM) | N=c1oc2c(O)cccc2cc1C(=O)Nc1cccc(O)c1 [Compound 9TA] | inhibition of cancer cell growth (in words) [11]: not as potent; inhibition of p60^c-src kinase (in words) [4]: strong inhibitory effect |
|  | 1.25 µg/mL (≈ 4 µM) | 15 µg/mL (≈ 48 µM) | 2.5 µg/mL (≈ 8.01 µM) | > 20 µg/mL | 10 µg/mL (≈ 32 µM) | 3.75 µg/mL (≈ 12 µM) | N=c1oc2cc(O)cc(O)c2cc1C(=O)Nc1cccc(O)c1 [Compound 19TA] | IC50 [1]: 5 µg/mL (≈ 16 µM); IC50, p56^lyn [6]: 5 µg/mL (≈ 16 µM); inhibition of growth of human fibroblast cells (in words) [10]: not effective; IC50 [10]: > 20 µg/mL |
|  | 9 µg/mL (≈ 30.4 µM) |  | 3.3 µg/mL (≈ 11.1 µM) |  |  |  | N=c1oc2cc(O)ccc2cc1C(=O)Nc1cccc(O)c1 [Compound 8TA] | IC50 [6]: > 33.8 µM |
|  | 1.8 µg/mL (≈ 5.8 µM) |  | 6 µg/mL (≈ 19.3 µM) |  |  |  | N=c1oc2c(O)cccc2cc1C(=O)Nc1ccccc1CO [Compound 9TOBA] | IC50 [1]: 5 µg/mL (≈ 16.1 µM); potency relative to the hydroxylated parent compound (in words) ([4]; p60^c-src): much more potent |
|  | 0.2 µg/mL (≈ 0.64 µM) | 1 µg/mL (≈ 3.2 µM) | 1 µg/mL (≈ 3.2 µM) |  | 2.5 µg/mL (≈ 8.01 µM) | 2 µg/mL (≈ 6.4 µM) | N=c1oc2cc(O)cc(O)c2cc1C(=O)Nc1ccc(O)cc1 [Compound 19T] | IC50, p56^lyn [6]: 5 µg/mL (≈ 16 µM); fold more potent than the parent compound 25T ([4]; p60^c-src, versus 25T): 200 fold; inhibition of growth of human fibroblast cells (in words) [10]: not effective; IC50 [10]: > 20 µg/mL |
|  | 3.2 µg/mL (≈ 10.8 µM) | 3 µg/mL (≈ 10.1 µM) | 4.2 µg/mL (≈ 14.2 µM) | 4.5 µg/mL (≈ 15.2 µM) |  |  | N=c1oc2ccc(O)cc2cc1C(=O)Nc1ccc(O)cc1 [Compound 7T] |  |
| > 20 µg/mL |  | 1.9 µg/mL (≈ 6.41 µM) | 1.5 µg/mL (≈ 5.06 µM) |  | 4 µg/mL (≈ 13.5 µM) | 1.2 µg/mL (≈ 4.05 µM) | N=c1oc2c(O)cccc2cc1C(=O)Nc1ccccc1O [Compound 9TO] | inhibition of p60^c-src kinase (in words) [4]: relatively weak activity |
| > 20 µg/mL | 0.225 µg/mL (≈ 0.721 µM) | 20 µg/mL (≈ 64 µM) | 9 µg/mL (≈ 28.8 µM) |  | > 20 µg/mL | 20 µg/mL (≈ 64 µM) | N=c1oc2c(O)c(O)ccc2cc1C(=O)Nc1cccc(O)c1 [Compound 18TA] | IC50, p56^lyn [6]: 18 µg/mL (≈ 57.6 µM); inhibition of cancer cell growth (in words) [11]: not as potent; inhibition of p60^c-src kinase (in words) [4]: strong inhibitory effect; fold more potent than 18AN ([4]; p60^c-src, versus 18AN): 88 fold |
| > 20 µg/mL | 12 µg/mL (≈ 38.4 µM) | 2 µg/mL (≈ 6.4 µM) | 2 µg/mL (≈ 6.4 µM) |  | 15 µg/mL (≈ 48 µM) | 20 µg/mL (≈ 64 µM) | N=c1oc2c(O)c(O)ccc2cc1C(=O)Nc1ccccc1O [Compound 18TO] | inhibition of p60^c-src kinase (in words) [4]: relatively weak activity |
| > 20 µg/mL | 0.9 µg/mL (≈ 2.76 µM) | > 20 µg/mL | 6 µg/mL (≈ 18.4 µM) |  |  | 5 µg/mL (≈ 15.3 µM) | N=c1oc2c(O)c(O)ccc2cc1C(=O)Nc1ccccc1CO [Compound 18TOBA] | potency relative to the hydroxylated parent compound (in words) ([4]; p60^c-src): much more potent |
|  | 1.3 µg/mL (≈ 4.39 µM) | 4.5 µg/mL (≈ 15.2 µM) | 6.5 µg/mL (≈ 21.9 µM) |  |  |  | N=c1oc2ccc(O)cc2cc1C(=O)Nc1cccc(O)c1 [Compound 7TA] | IC50 [6]: > 33.8 µM |
|  | 3 µg/mL (≈ 8.87 µM) | 15 µg/mL (≈ 44.3 µM) |  |  |  |  | CC(=O)c1cccc(NC(=O)c2cc3ccc(O)c(O)c3oc2=N)c1 [Compound 18ACTA] | IC50, p56^lyn [6]: 10 µg/mL (≈ 29.6 µM) |
|  | 1.3 µg/mL (≈ 4.19 µM) | 12 µg/mL (≈ 38.7 µM) |  |  |  |  | COc1cccc2cc(C(=O)Nc3cccc(O)c3)c(=N)oc12 [Compound 32TA] |  |
|  | 1.2 µg/mL (≈ 4.05 µM) | 5 µg/mL (≈ 16.9 µM) | 5 µg/mL (≈ 16.9 µM) | 14 µg/mL (≈ 47.3 µM) |  |  | N=c1oc2cc(O)ccc2cc1C(=O)Nc1ccc(O)cc1 [Compound 8T] |  |
|  | 0.6 µg/mL (≈ 2.03 µM) |  | 8 µg/mL (≈ 27 µM) |  |  |  | N=c1oc2cc(O)ccc2cc1C(=O)Nc1ccccc1O [Compound 8TO] |  |
|  |  |  | > 10 µg/mL | 10 µg/mL (≈ 35.7 µM) |  |  | N=c1oc2ccccc2cc1C(=O)Nc1ccc(O)cc1 [Compound 25T, 3-(N-4-hydroxyphenyl)carbamoyl-2-iminochromene] | inhibition of cancer cell growth (in words) [11]: less active; inhibition of p60^c-src kinase (in words) [4]: poorly inhibits; also recorded: inactive |
| > 20 µg/mL |  |  | 2.5 µg/mL (≈ 8.44 µM) | 7 µg/mL (≈ 23.6 µM) | 4 µg/mL (≈ 13.5 µM) | 0.62 µg/mL (≈ 2.09 µM) | N=c1oc2c(O)cccc2cc1C(=O)Nc1ccc(O)cc1 [Compound 9T] | IC50 [1]: 1.25 µg/mL (≈ 4.22 µM); IC50, p56^lyn [6]: 20 µg/mL (≈ 67.5 µM) |
|  |  |  |  |  |  |  | O=c1ccc2ccccc2o1 [coumarin] | effect against melanoma (in words) [12]: effective against melanoma |
